Results: ChEMBL document CHEMBL1201862, “PubChem BioAssay data set” (2004)
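Five concentrations, 48 hours, 96-well plates. Abbreviation: GI50, concentration required for 50% inhibition of growth.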 The source made the active and inactive calls. Cut-off read from the data, not from the text of the source: active = GI50 up to about 1.1 µM and inactive = higher.

How the values were obtained:
Test in all cases: NCI-60 cell line screen, 48 h
[1] = tested on: ACHN
[2] = tested on: CAKI-1
[3] = tested on: CCRF-CEM
[4] = tested on: HCT-15
[5] = tested on: HL-60
[6] = tested on: HOP-92
[7] = tested on: K562
[8] = tested on: MDA-MB-231
[9] = tested on: MDA-MB-435
[10] = tested on: NCI-H460
[11] = tested on: NCI-H522
[12] = tested on: SF-295
[13] = tested on: SK-MEL-2
[14] = tested on: SW-620
[15] = tested on: T47D
[16] = tested on: U-251
[17] = tested on: UACC-257
[18] = tested on: UO-31
[19] = tested on: Hs-578T
[20] = tested on: SF-539

Row | SMILES | GI50 [1] | GI50 [2] | GI50 [3] | GI50 [4] | GI50 [5] | GI50 [6] | GI50 [7] | GI50 [8] | GI50 [9] | GI50 [10] | GI50 [11] | GI50 [12] | GI50 [13] | GI50 [14] | GI50 [15] | GI50 [16] | GI50 [17] | GI50 [18] | GI50 [19] | GI50 [20]
1 | N=c1nc(N)nc(N)n1-c1ccc(S(N)(=O)=O)cc1 | > 100 µM (inactive) | > 100 µM (inactive) | > 100 µM (inactive) | > 100 µM | > 100 µM (inactive) | > 100 µM (inactive) | > 100 µM (inactive) | > 100 µM (inactive) | > 100 µM (inactive) | > 100 µM (inactive) | > 100 µM (inactive) | > 100 µM (inactive) | > 100 µM (inactive) | > 100 µM (inactive) | > 100 µM (inactive) | > 100 µM (inactive) | > 100 µM (inactive) | > 100 µM (inactive) | – | –
2 | CN1CC(c2ccccc2)=CC2=C1C=CC(=N)/C2=N\N | > 100 µM (inactive) | 5.46 µM (inactive) | > 100 µM (inactive) | > 100 µM | – | – | > 100 µM (inactive) | > 100 µM (inactive) | > 100 µM (inactive) | > 100 µM (inactive) | > 100 µM (inactive) | 75.3 µM (inactive) | 48.2 µM (inactive) | > 100 µM (inactive) | > 100 µM (inactive) | > 100 µM (inactive) | > 100 µM (inactive) | > 100 µM (inactive) | 35.3 µM (inactive) | > 100 µM (inactive)
3 | C[n+]1c2ccccc2c(C(=O)Nc2ccc(S(=O)(=O)Nc3ncccn3)cc2)c2ccccc21 | > 100 µM (inactive) | > 100 µM (inactive) | – | > 100 µM | – | – | 97.5 µM (inactive) | 71.9 µM (inactive) | 42.3 µM (inactive) | > 100 µM (inactive) | – | > 100 µM (inactive) | > 100 µM (inactive) | > 100 µM (inactive) | > 100 µM (inactive) | > 100 µM (inactive) | > 100 µM (inactive) | 75.5 µM (inactive) | > 100 µM (inactive) | > 100 µM (inactive)
4 | O=c1[nH]cnc2cccc(Cl)c12 | > 100 µM (inactive) | > 100 µM (inactive) | > 100 µM (inactive) | > 100 µM | > 100 µM (inactive) | – | > 100 µM (inactive) | > 100 µM (inactive) | – | > 100 µM (inactive) | > 100 µM (inactive) | > 100 µM (inactive) | > 100 µM (inactive) | > 100 µM (inactive) | > 100 µM (inactive) | > 100 µM (inactive) | > 100 µM (inactive) | > 100 µM (inactive) | > 100 µM (inactive) | > 100 µM (inactive)
5 | CC[C@]1(O)C[C@H]2CN(CCc3c([nH]c4ccccc34)[C@@](C(=O)OC)(c3cc4c(cc3OC)N(C)[C@H]3[C@@](O)(C(=O)OC)[C@H](OC(C)=O)[C@]5(CC)C=CCN6CC[C@]43[C@@H]65)C2)C1 | 0.00849 µM (active) | 0.00706 µM (active) | 0.000641 µM (active) | 0.0241 µM | 0.00042 µM (active) | 0.00227 µM (active) | 0.000508 µM (active) | 0.000991 µM (active) | 0.000386 µM (active) | 0.000629 µM (active) | 0.000309 µM (active) | 0.000492 µM (active) | 0.000762 µM (active) | 0.000564 µM (active) | – | 0.000715 µM (active) | – | 0.143 µM (active) | – | 0.000605 µM (active)
6 | CC(=O)Nc1ccc(S(=O)(=O)Nc2nc(-c3ccc(Cl)cc3)cc(N3N=C(c4ccc(Br)cc4)CC3c3ccccc3)n2)cc1 (configuration not stated) | 24.5 µM (inactive) | – | 26.1 µM (inactive) | 15.7 µM | 14.2 µM (inactive) | 13.7 µM (inactive) | 7.21 µM (inactive) | 13.9 µM (inactive) | 7.45 µM (inactive) | 16.9 µM (inactive) | 14.8 µM (inactive) | 16.6 µM (inactive) | 14.7 µM (inactive) | 20.4 µM (inactive) | – | 16.8 µM (inactive) | 17.5 µM (inactive) | 15.4 µM (inactive) | 11.1 µM (inactive) | 16.9 µM (inactive)
7 | Cc1ccc2c(c1)CC1(C2=O)[C@H](c2ccccc2)C2C(=O)c3ccc(C)cc3C2[C@H]1c1ccccc1 (some centres not stated) | > 100 µM (inactive) | > 100 µM (inactive) | > 100 µM (inactive) | > 100 µM | 43.1 µM (inactive) | > 100 µM (inactive) | 30.7 µM (inactive) | > 100 µM (inactive) | > 100 µM (inactive) | > 100 µM (inactive) | > 100 µM (inactive) | > 100 µM (inactive) | – | > 100 µM (inactive) | > 100 µM (inactive) | > 100 µM (inactive) | > 100 µM (inactive) | > 100 µM (inactive) | – | > 100 µM (inactive)
8 | COc1ccc2c(c1)NC1(CCN(CCCC(=O)c3ccc(F)cc3)CC1)N=N2 | 27.5 µM (inactive) | 29.6 µM (inactive) | 20 µM (inactive) | 20.8 µM | 15.2 µM (inactive) | 29.9 µM (inactive) | 19.4 µM (inactive) | 22.5 µM (inactive) | 15.8 µM (inactive) | 26.1 µM (inactive) | 16.9 µM (inactive) | 19.6 µM (inactive) | 17.9 µM (inactive) | 23.8 µM (inactive) | 22.2 µM (inactive) | 19.2 µM (inactive) | 17.6 µM (inactive) | 18 µM (inactive) | – | 19.8 µM (inactive)
